Reference: US7612057B2, “Supramolecular complexes as photoactivated DNA cleavage agents” (Virginia Tech Intellectual Properties, Inc., priority 2002, dated 2009)

Assays:
pUC18 plasmid = test: Photocleavage of pUC18 plasmid DNA assayed by agarose gel electrophoresis; format: biochemical
Method: FIG. 10A-C. (a) Schematic representations of imaged agarose gel showing the photocleavage of pUC18 plasmid by [{(bpy)2Ru(dpp)}2RhCl2]^5+ in the absence of molecular oxygen. Lane 1 λ molecular weight standard, lanes 2 and 3 plasmid controls, lanes 4 and 6 plasmid incubated at 37° C. (2 h) in the presence of [(bpy)2Ru(dpp)]^2+ and [{(bpy)2Ru(dpp)}2RhCl2]^5+, respectively (1:5metal complex/base pair), lanes 5 and 7 plasmid irradiated at λ≧475 nm for 10 min in the presence of [(bpy)2Ru(dpp)]^2+ and [{(bpY)2Ru(dpp)}2RhCl2]^5+, respectively. (b) Lanes 1 and 2 plasmid controls, lanes 3 and 5 plasmid incubated at 37° C. (3 h) in the presence of [{(bpy)2Ru(bpm)}2RhCl2]^5+ and [{(bpy)2Ru(dpp)}2IrCl2]^5+, respectively, lanes 4 and 6 plasmid irradiated at λ≧475 nm for 10 min in the presence of [{(bpy)2Ru(bpm)}2RhCl2]^5+ and [{(bpy)2Ru(dpp)}2IrCl2]^5+, respectively. (c) Imaged agarose gel showing photocleavage of pBluescript plasmid in the absence of molecular oxygen by [(bpy)2Ru(dpp)RhCl2(dpp)Ru(bpy)2](PF6)5. Lane 1 is the λ molecular weight standard, lane 2 is the control linearized DNA (cut with HindIII) with no metal present, lane 3 is the control circular DNA with no metal present, lane 4 is a 1:5 metal complex/base pair mixture of the plasmid with the metal complex incubated at 37° C. (4 h), and lane 5 is a 1:5 metal complex/base pair mixture of the plasmid with the metal complex photolyzed at 520±5 nm for 4 h. All gels used 0.8% agarose, 90 mM Tris, and 90 mM boric acid buffer (pH=8.2, ionic strength=0.0043 M calculated using the Henderson-Hasselbalch equation).
(§1) A, DNA Photocleavage of pUC18 using [{(bpy)2Os(dpp)}2RhCl2](PF6)5:Lane 1 is the λ molecular weight standard, Lane 2 is a plasmid control, Lane 3 is a 1:5 metal complex/base pair mixture of the plasmid with the metal complex incubated at 37° C. for 20 minutes, Lane 4 is a 1:5 metal complex/base pair mixture of the plasmid with the metal complex photolyzed at >475 nm for 20 minutes.
C, DNA Photocleavage of pUC18 using [{(tpy)RuCl(bpm)}2RhCl2](PF6)3:Lane 1 is the λ molecular weight standard, Lane 2 is a plasmid control, Lane 3 is the plasmid alone photolyzed λ>475 nm for 15 mins, Lane 4 is a 1:5 metal complex/base pair mixture of the plasmid with the metal complex incubated at 37° C. for 15 minutes, Lane 5 is a 1:5 metal complex/base pair mixture of the plasmid with the metal complex photolyzed at >475 nm for 15 minutes.
pUC18 and pBluescript were used to probe pbotocleavage of DNA by gel electrophoresis.^14,26,41,42 pUC18 plasmid is 2686 bp (Bayou Biolabs). Irradiation used a 1000 W xenon arc lamp, a water IR filter, and a 475 nm cut off filter. Solutions were 3.5 μM in metal complex and 6.9 mM in phosphate buffer (pH=7) and allowed for ionic association of the cationic metal complexes with DNA. Dexoygenation was accomplished by bubbling with Ar for 30 min prior to the photolysis of the samples in an airtight cell blanketed with Ar.
The photocleavage of DNA by [{(bpy)2Ru(dpp)}2RhCl2]^5+ but not the monometallic ruthenium synthon illustrates the role of the supramolecular architecture, including Rh, on the desired photoreactivity. The cleavage product migrates slightly slower through the gel than native nicked plasmid, and similar results have been observed by Turro.^14 […]

pBluescript plasmid = test: Photocleavage of pBluescript plasmid DNA assayed by agarose gel electrophoresis; format: biochemical
Method: FIG. 10A-C. […] Lane 1 λ molecular weight standard, lanes 2 and 3 plasmid controls, lanes 4 and 6 plasmid incubated at 37° C. […] (b) Lanes 1 and 2 plasmid controls, lanes 3 and 5 plasmid incubated at 37° C. […] Lane 1 is the λ molecular weight standard, lane 2 is the control linearized DNA (cut with HindIII) with no metal present, lane 3 is the control circular DNA with no metal present, lane 4 is a 1:5 metal complex/base pair mixture of the plasmid with the metal complex incubated at 37° C. (4 h), and lane 5 is a 1:5 metal complex/base pair mixture of the plasmid with the metal complex photolyzed at 520±5 nm for 4 h. All gels used 0.8% agarose, 90 mM Tris, and 90 mM boric acid buffer (pH=8.2, ionic strength=0.0043 M calculated using the Henderson-Hasselbalch equation).
as §1, with “B,” for “A,”, “pBluescript” for “pUC18”, “[{(tpy)RuCl(dpp)}2RhCl2](PF6)3:Lane” for “[{(bpy)2Os(dpp)}2RhCl2](PF6)5:Lane”
pUC18 and pBluescript were used to probe pbotocleavage of DNA by gel electrophoresis.^14,26,41,42 pUC18 plasmid is 2686 bp (Bayou Biolabs). Irradiation used a 1000 W xenon arc lamp, a water IR filter, and a 475 nm cut off filter. […]

Vero cells = test: Photoinduced inhibition of Vero cell replication; format: cell-based
Method: Photoinduced inhibition of Vero cell replication by the supramolecular complex [{(bpy)2Ru(dpp)}2RhCl2](PF6)5 was investigated. All experiments were carried out with 0.5 mg/mL of [{(bpy)2Ru(dpp)}2RhCl2](PF6)5 in MEM media, and the results are shown in FIG. 11A. This cell line normally replicates once each 24 hours.
The concentration dependence of photoinduced inhibition of cell replication by the supramolecular complex [{(bpy)2Ru(dpp)}2RhCl2]Cl5 is shown in FIG. 11B. […] This is likely due to photoinduced death of the irradiated cells.

Molecule: [(2,2′:6′,2″-terpyridine)RuCl(2,2′-bipyridimidine)RhCl2(2,2′-bipyridimidine)RuCl(2,2′:6′,2″-terpyridine)](PF6)3 [[{(tpy)RuCl(bpm)}2RhCl2](PF6)3]
- DNA photocleavage (pUC18 plasmid; photolyzed at >475 nm for 15 minutes, 1:5 metal complex/base pair (FIG. 12C)): efficiently cleave DNA

Molecule: F[P-](F)(F)(F)(F)F.F[P-](F)(F)(F)(F)F.F[P-](F)(F)(F)(F)F.F[P-](F)(F)(F)(F)F.F[P-](F)(F)(F)(F)F.[Cl-].[Cl-].[Os+2].[Os+2].[Rh+3].c1ccc(-c2ccccn2)nc1.c1ccc(-c2ccccn2)nc1.c1ccc(-c2ccccn2)nc1.c1ccc(-c2ccccn2)nc1.c1ccc(-c2nccnc2-c2ccccn2)nc1.c1ccc(-c2nccnc2-c2ccccn2)nc1 [[{(bpy)2Os(dpp)}2RhCl2](PF6)5, [(2,2′-bipyridine)2Os(2,3-bis(2-pyridyl)pyrazine)RhCl2(2,3-bis(2-pyridyl)pyrazine)Os(2,2′-bipyridine)2](PF6)5]
- DNA photocleavage (pUC18 plasmid; photolyzed at >475 nm for 20 minutes, 1:5 metal complex/base pair (FIG. 12A)): efficiently cleave DNA

Molecule: F[P-](F)(F)(F)(F)F.F[P-](F)(F)(F)(F)F.F[P-](F)(F)(F)(F)F.[Cl-].[Cl-].[Cl-].[Cl-].[Rh+3].[Ru+2].[Ru+2].c1ccc(-c2cccc(-c3ccccn3)n2)nc1.c1ccc(-c2cccc(-c3ccccn3)n2)nc1.c1ccc(-c2nccnc2-c2ccccn2)nc1.c1ccc(-c2nccnc2-c2ccccn2)nc1 [[{(tpy)RuCl(dpp)}2RhCl2](PF6)3, [(2,2′:6′,2″-terpyridine) RuCl(2,3-bis(2-pyridyl)pyrazine)RhCl2(2,3-bis(2-pyridyl)pyrazine)RuCl(2,2′:6′,2″-terpyridine)](PF6)3]
- DNA photocleavage (pBluescript plasmid; photolyzed at >475 nm for 20 minutes, 1:5 metal complex/base pair (FIG. 12B)): efficiently cleave DNA

Molecule: F[P-](F)(F)(F)(F)F.F[P-](F)(F)(F)(F)F.F[P-](F)(F)(F)(F)F.F[P-](F)(F)(F)(F)F.F[P-](F)(F)(F)(F)F.[Cl-].[Cl-].[Rh+3].[Ru+2].[Ru+2].c1ccc(-c2ccccn2)nc1.c1ccc(-c2ccccn2)nc1.c1ccc(-c2ccccn2)nc1.c1ccc(-c2ccccn2)nc1.c1ccc(-c2nccnc2-c2ccccn2)nc1.c1ccc(-c2nccnc2-c2ccccn2)nc1 [[{(bpy)2Ru(dpp)}2RhCl2](PF6)5]
- DNA cleavage without irradiation (pUC18 plasmid; incubated at 37° C. for 2 h, 1:5 metal complex/base pair): the plasmid DNA is not cleaved
- DNA photocleavage (supercoiled to nicked form) (pUC18 plasmid; irradiated λ≧475 nm for 10 min, absence of molecular oxygen, 1:5 metal complex/base pair, 3.5 μM complex, phosphate buffer pH 7): conversion of the supercoiled DNA to the nicked form is observed
- DNA photocleavage (pUC18 plasmid; irradiated λ≧475 nm, presence of molecular oxygen): also observed in the presence of molecular oxygen
- DNA photocleavage (pBluescript plasmid; presence of molecular oxygen): also observed in the presence of molecular oxygen
- Toxicity to cells in the dark (Vero cells; Vero cells, no illumination, 0.5 mg/mL): not toxic to cells in the dark
- Vero cell replication, complex alone (Vero cells; incubated in the dark, without illumination, MEM media (FIG. 11A)): did not impact replication
- Photoinduced inhibition of Vero cell replication (Vero cells; photolysis at λ>475 nm after incubation with 0.5 mg/mL complex in MEM media (FIG. 11A)): greatly inhibits cell replication
